Data set [1] has as its target NADH dehydrogenase (Complex I, CI) (Homo sapiens, UniProt O75251+O75306+P03886).
Method: The mitochondrial complex assay uses real-time OCR measurement with sequential addition of specific complex substrates and/or inhibitors to identify the complex within the ETC that is inhibited. […] In the first step, cultured cells are permeabilised and provided with CI substrates. The test compound is injected and OCR is measured. […] OCR is measured for the second time. In the third step, Antimycin A together with ascorbate and tetramethyl phenylenediamine (TMPD) is added to simultaneously block CIII and supply CIV. A third and final OCR measurement is conducted.
The following day, cells were washed once in mitochondrial assay solution (MAS), containing 220 mM mannitol (Sigma, M9647), 70 mM sucrose (Sigma, S7903), 10 mM potassium phosphate (Sigma, P5655), 5 mM magnesium chloride (Sigma, M8266), 3 mM HEPES (Sigma, H0887) and 1 mM EGTA (Sigma, E4378) with 0.2% fatty acid-free BSA (Sigma, A8806). […] Each measurement consisted of a thirty second mix and two-minute read cycle. Compounds were injected sequentially and OCR was measured twice. […] Complex inhibition was determined using the second OCR measurement after compound/vehicle injection, normalised to the baseline OCR measurements prior to compound addition. ETC inhibition is determined in decreased OCR. CI inhibition is confirmed if the inhibited OCR by injection A can be rescued after injection B. CII inhibition is determined if there is no inhibition after A, but inhibition after B. CIII inhibition is determined if there is inhibition after A and B, with recovery after C. OCR inhibition after injection C indicates effects downstream of CIII.
All results are average of 2–3 independent experiments. Each independent experiment is referred to as biological replicate and includes at least two technical replicates. […] Variation in all performed assays was calculated and represented as standard deviation (SD). Curves were fit using the non-liner regression four-parameter Hill model.
In data set [2] the test system is HepG2 cells. The experiment in a line: Resazurin reduction viability assay, 2D HepG2. In kind it is cell-based, human. As to conditions: for Statistical significance, Viability Galactose settings Resazurin: HepG2. Here is the method: The HepG2 cell line, a human hepatocellular carcinoma, was obtained from ATCC (American Type Culture Collection, Wesel, Germany). […] Cells were maintained at 37 °C in a 5% CO2 humidified atmosphere, fed every 2 to 3 days and passaged at approximately 80% confluence. […] For galactose experiments, the medium was refreshed 24 h before exposure with galactose-containing medium. […] Culture medium was refreshed every 3–4 days and the culture was maintained for 21 days prior to dosing.
(§1) The conversion of resazurin to fluorescent resorufin was measured in a plate reader at excitation/emission 540/590 nm.
(§2) All results are average of 2–3 independent experiments.
Background: The colour change of resazurin is a common sign of viable cells or microbes.

Data set [3] concerns RPTEC/TERT1 cells. Description: Resazurin reduction viability assay, RPTEC/TERT1. In kind it is cell-based, human. Here is the method:
These cells were obtained under licence from Evercyte GmBH, Vienna Austria. […] For experiments, cells were plated in a required format plate, allowed to become contact-inhibited and fed 24 h prior to treatment exposure. For experiments in galactose condition, cells were fed 24 h prior to experiment with culture medium (custom made DMEM/F12, PromoCell) in which 5 mM glucose was replaced with 5 mM galactose (Merck, G5388).
as §1, §2

Data set [4] deals with CII/CIII (succinate dehydrogenase / cytochrome bc1 complex). In kind it is cell-based, human. As to conditions: permeabilised HepG2; sequential substrates/inhibitors. The method, then: The test compound is injected and OCR is measured. […] OCR is measured for the second time. […] A third and final OCR measurement is conducted.
Compounds were injected sequentially and OCR was measured twice. […] ETC inhibition is determined in decreased OCR.
as §2

In data set [5] the test system is RPTEC/TERT1 cells. The experiment in a line: Seahorse mitostress assay in intact cells (OCR/ECAR), RPTEC/TERT1. In kind it is cell-based, human. Here is the method: The Seahorse bioanalyzer simultaneously measures cellular oxygen consumption rates (OCR) and extracellular acidification rates (ECAR). The mitostress assay utilises a sequential addition of modulators of the oxidative phosphorylation to assess key parameters of mitochondrial function. […] It is worth noting here that RPTEC/TERT1 require longer differentiation time in the Seahorse plates, potentially due to sub-optimum gas exchange in the Seahorse culture plates. HepG2 cells were cultured at the density of 15,000 cells/well on collagen-coated (2.5 µg/µL collagen IV, Merck, C7521) Seahorse cell culture microplates two days prior to analysis.
The mitostress test was performed as described (Eakins et al. [2016]; Tilmant et al. [2018]). Immediately before the assay, cell culture medium was replaced with 180 µL of Seahorse XF Base Medium without phenol red (Agilent, 1003335-100), supplemented with 10 mM D-glucose (Merck, G7021), 5 mM HEPES (Merck, H4034), 2 mM sodium pyruvate (Merck, P5281) and 1 mM L-glutamine (Merck, G8540). Cells were allowed to equilibrate for 45 min in a non-CO2 37 °C incubator. […] OCR was measured five times after test compound injection and three times for all injections. Each measurement consisted of a 3 min mix and subsequent 3 min read cycle. […]

Data set [6] deals with HepG2 cells. Description: Seahorse mitostress assay in intact cells (OCR/ECAR), HepG2. As to conditions: seen at 2 and 10 µM.
The subject of data set [7] is HepG2 cells. The experiment in a line: Cell death (PI staining) in 2D HepG2 by live confocal imaging. In kind it is cell-based, human. Here is the method: After 1 h incubation at 37° C, the medium was removed and 25 μL complete DMEM containing 0.2 μM Rho123 and 100 nM propidium iodide (PI) (Merck, P4170) was added, followed by 25 μL of medium containing 2×, the desired concentration of test compound. […] The confocal imaging was performed using a Nikon TiE2000 with perfect focus system and xy-stage (Nikon, Amsterdam, The Netherlands). Quantification of the Hoechst, Rho123 and PI signal intensity and localization were performed using CellProfiler version 2.1.1 (Broad Institute, Cambridge, USA). […] The PI-positive nuclei were identified by masking the previous segmented nuclei and the PI signal. More than 10% overlap was considered as PI positive. All CellProfiler analyses were stored as HDF5 files. The combination of an internally developed R script, run in Rstudio (Boston, USA), was used for data extraction including Rho123 signal intensity, fraction PI positive and nuclear count.
as §2

Data set [8] deals with RPTEC/TERT1 cells. The experiment in a line: Mitochondrial membrane potential (MMP) assay with JC-1. Particulars: RPTEC/TERT1, JC-1, 24 h. The class given is cell-based, human. The method, then: JC-1 is a single-excitation dual-emission fluorescence-based assay that allows for ratiometric semiquantitative assessment of mitochondrial membrane potential (Perry et al. [2011]). For quantification of changes in MMP cells were pre-loaded, for approximately 1.5 h, with the JC-1 pre-loading solution containing 9 µM JC-1 (Invitrogen, 65-0851-38), 9 µL/mL Pluronic F-127 10% in water (Invitrogen, P6866) and 5 µM Cyclosporine A (CsA) (Merck, 30024), a P-glycoprotein (P-gp) inhibitor, to prevent dye extrusion due to the expression of efflux pumps in RPTEC/TERT1 cell line. After this incubation time, cells were washed and exposed to test compounds dissolved in a JC-1 treatment solution containing 0.5 µM JC-1, 1.5 µL/mL Pluronic F-127 and 1 µM CsA for the desired time. We have previously determined that CsA at up to 5 µM has no adverse effect on RPTEC/TERT1 cells for up to 14 days (Wilmes et al. [2013]). Fluorescence was measured in a plate reader at excitation 492 nm and dual emission, 535 nm for monomers and 590 nm for dimers. Results are presented as the dimer/monomer ratio and expressed as percentage of untreated samples.
(§3) All results are average of 2–3 independent experiments. […] Leist, University of Konstanz (Krebs et al. [2020]).

Data set [9] deals with HepG2 cells. Description: Mitochondrial membrane potential (Rho123) live confocal imaging. In kind it is cell-based, human. Particulars: HepG2, Rho123, 24 h. Here is the method:
Rhodamine 123 (Rho123) (Merck, R8004) was used in a live confocal imaging setting for the assessment of effects at MMP. Rho123 localises to mitochondria and the decline in fluorescence is proportional to a decrease in MMP (Johnson et al. [1980], [1981]). HepG2 were seeded at 10,000 cells/30 μL/well in a 384-wells μCLEAR® black plate (Greiner Bio-One, 781 091). Two days post-seeding, 30 μL complete HepG2 culture medium, containing 200 ng/μL Hoechst 33342 (Life technologies, H1399) and 1 μM Rho123, was added to the medium. After 1 h incubation at 37° C, the medium was removed and 25 μL complete DMEM containing 0.2 μM Rho123 and 100 nM propidium iodide (PI) (Merck, P4170) was added, followed by 25 μL of medium containing 2×, the desired concentration of test compound. The intensity of Hoechst, Rho123 and PI, was monitored using live confocal imaging for 24 h using the 408, 488 and 561 nm laser, respectively. The confocal imaging was performed using a Nikon TiE2000 with perfect focus system and xy-stage (Nikon, Amsterdam, The Netherlands). Quantification of the Hoechst, Rho123 and PI signal intensity and localization were performed using CellProfiler version 2.1.1 (Broad Institute, Cambridge, USA). The nuclear identification based on the Hoechst signal was performed using an internally created segmentation module (Di et al. [2012]), followed by a cytoplasmic identification based on a specific distance from these nuclei. The PI-positive nuclei were identified by masking the previous segmented nuclei and the PI signal. More than 10% overlap was considered as PI positive. All CellProfiler analyses were stored as HDF5 files. The combination of an internally developed R script, run in Rstudio (Boston, USA), was used for data extraction including Rho123 signal intensity, fraction PI positive and nuclear count.
as §3

Where [10] appears, read: up to 10 µM, 24 h exposure, glucose.
[11] abbreviates: RPTEC/TERT1, glucose, h = 10 µM.

Like-named read-outs stand apart in the source and are kept apart here.

Sequence of NADH dehydrogenase (Complex I, CI) (O75251 39-213): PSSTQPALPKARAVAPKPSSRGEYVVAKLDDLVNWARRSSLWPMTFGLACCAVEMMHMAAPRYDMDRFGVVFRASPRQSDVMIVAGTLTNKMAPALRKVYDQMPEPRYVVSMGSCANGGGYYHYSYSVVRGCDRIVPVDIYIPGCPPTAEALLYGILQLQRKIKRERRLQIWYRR
Sequence of NADH dehydrogenase (Complex I, CI) (P03886 whole entry): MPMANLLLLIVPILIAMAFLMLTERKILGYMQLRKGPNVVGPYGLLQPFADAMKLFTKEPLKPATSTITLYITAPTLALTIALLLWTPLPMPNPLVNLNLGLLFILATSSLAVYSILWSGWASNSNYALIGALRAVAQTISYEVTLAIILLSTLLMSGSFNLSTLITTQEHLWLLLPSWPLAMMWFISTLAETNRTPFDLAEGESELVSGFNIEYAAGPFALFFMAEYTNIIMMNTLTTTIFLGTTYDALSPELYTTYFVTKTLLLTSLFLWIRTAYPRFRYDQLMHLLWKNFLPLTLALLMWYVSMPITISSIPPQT
Sequence of NADH dehydrogenase (Complex I, CI) (O75306 34-463): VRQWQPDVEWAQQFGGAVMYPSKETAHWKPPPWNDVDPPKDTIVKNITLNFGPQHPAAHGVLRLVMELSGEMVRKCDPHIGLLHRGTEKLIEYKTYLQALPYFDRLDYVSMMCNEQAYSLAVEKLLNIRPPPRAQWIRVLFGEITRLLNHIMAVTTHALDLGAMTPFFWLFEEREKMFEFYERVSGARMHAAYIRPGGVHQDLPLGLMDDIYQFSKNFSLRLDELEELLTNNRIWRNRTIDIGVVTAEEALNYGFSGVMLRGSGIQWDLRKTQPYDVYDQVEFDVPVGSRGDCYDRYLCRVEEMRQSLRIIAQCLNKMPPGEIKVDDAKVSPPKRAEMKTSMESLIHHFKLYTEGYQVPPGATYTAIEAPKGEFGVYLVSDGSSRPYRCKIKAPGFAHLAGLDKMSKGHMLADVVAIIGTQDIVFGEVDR

Regarding `COc1cc(CNC(=O)CCCC/C=C/C(C)C)ccc1O` [Capsaicin], the “LOEL, CI inhibition in mitochondrial complex assay” value in data set [1] (permeabilised HepG2) is given as 50 µM. In addition, in data set [1] (permeabilised HepG2, OCR inhibition after injection, recovery with succinate), the “ETC-complex specificity pattern (CI)” value was “expected CI-specificity pattern”. In the data set on HepG2 cells [2] (setting [10]), the “Effect on resazurin reduction / viability” value is listed as “did not affect resazurin reduction”. Moreover, the “Statistical significance, Viability Glucose settings Resazurin” value with RPTEC/TERT1 cells [3] (setting [11]) is listed as “* (*p < 0.05 (Tables 3, 4))”. Also, the “Effect on resazurin reduction” value in the data set with RPTEC/TERT1 cells [3] (setting [10]) was “did not affect resazurin reduction”.

Take `Cc1ccc(-c2c(Cl)nc(C#N)n2S(=O)(=O)N(C)C)cc1` [Cyazofamid]: the “Statistical significance, Viability Galactose settings Resazurin” value in the data set on HepG2 cells [2] (h = 10 µM) is “* (*p < 0.05 (Tables 3, 4))”. Moreover, the “ETC-complex specificity pattern (CII/CIII)” value in [4] is “CII inhibition pattern but only at 100 µM”. Further, the “Uncoupling effect in mitostress OCR” value in the data set with RPTEC/TERT1 cells [5] (RPTEC/TERT1, seen at 2 and 10 µM) is given as “strong uncoupling effect”; in the data set on HepG2 cells [6], “strong uncoupling effect”.

Consider `COc1cc2c(cc1OC)[C@@H]1C(=O)c3ccc4c(c3O[C@@H]1CO2)C=CC(C)(C)O4` [Deguelin], for which, in [1], the “OCR basal - Permeabilised cells Measurement 1 statistical significance” value was “* (*p < 0.05)”. Besides, the “Statistical significance, Viability Galactose settings Resazurin” value is listed as “* (*p < 0.05 (Tables 3, 4))” with HepG2 cells [2] (f = 0.4 µM); “* (*p < 0.05 (Tables 3, 4))” in the data set on HepG2 cells [2] (g = 7 µM); “* (*p < 0.05 (Tables 3, 4))” in the data set with HepG2 cells [2] (h = 10 µM); “* (*p < 0.05 (Tables 3, 4))” in the data set with RPTEC/TERT1 cells [3] (RPTEC/TERT1, f = 0.4 µM); “* (*p < 0.05 (Tables 3, 4))” in the data set with RPTEC/TERT1 cells [3] (RPTEC/TERT1, g = 7 µM); “* (*p < 0.05 (Tables 3, 4))” with RPTEC/TERT1 cells [3] (RPTEC/TERT1, h = 10 µM). In addition, the “Statistical significance, Viability Glucose settings Resazurin” value is on record as “* (*p < 0.05 (Tables 3, 4))” in the data set with RPTEC/TERT1 cells [3] (RPTEC/TERT1, glucose, g = 7 µM) and “* (*p < 0.05 (Tables 3, 4))” in the data set with RPTEC/TERT1 cells [3] (setting [11]).

Turning to `Cc1nn(C)c(Oc2ccccc2)c1C=NOCc1ccc(C(=O)OC(C)(C)C)cc1` [Fenpyroximate], the “Statistical significance, Viability Galactose settings Resazurin” value with HepG2 cells [2] (d = 0.016 µM) is given as “* (*p < 0.05 (Tables 3, 4))”; in the data set on HepG2 cells [2] (e = 0.08 µM) it was “* (*p < 0.05 (Tables 3, 4))”; in the data set with HepG2 cells [2] (g = 7 µM) it was “* (*p < 0.05 (Tables 3, 4))”; in the data set with HepG2 cells [2] (h = 10 µM), “* (*p < 0.05 (Tables 3, 4))”; with RPTEC/TERT1 cells [3] (RPTEC/TERT1, e = 0.08 µM), “* (*p < 0.05 (Tables 3, 4))”; with RPTEC/TERT1 cells [3] (RPTEC/TERT1, g = 7 µM), “* (*p < 0.05 (Tables 3, 4))”. The “Statistical significance, Viability Galactose settings Resazurin” value in the data set on RPTEC/TERT1 cells [3] (RPTEC/TERT1, h = 10 µM) is reported as “* (*p < 0.05 (Tables 3, 4))”. In addition, the “Statistical significance, Cell death (% 24h) Galactose” value with HepG2 cells [7] is recorded as “* (*p < 0.05 (Tables 3, 4))”. In addition, the “Statistical significance, Viability Glucose settings Resazurin” value in the data set with RPTEC/TERT1 cells [3] was “* (*p < 0.05 (Tables 3, 4))”; with RPTEC/TERT1 cells [3] (RPTEC/TERT1, glucose, g = 7 µM), “* (*p < 0.05 (Tables 3, 4))”; with RPTEC/TERT1 cells [3] (setting [11]) it was “* (*p < 0.05 (Tables 3, 4))”.

In the case of `CC(C)Oc1cccc(NC(=O)c2ccccc2C(F)(F)F)c1` [Flutolanil], the “Effect on MMP” value in the data set on RPTEC/TERT1 cells [8] is recorded as “actually increased it”; with HepG2 cells [9] it was “decreased MMP, but only at the highest concentrations”.

Consider `Cc1ccccc1C(=O)Nc1cccc(OC(C)C)c1` [Mepronil], for which the “Effect on MMP” value in the data set with RPTEC/TERT1 cells [8] is “actually increased it”; in the data set on HepG2 cells [9] it was “decreased MMP, but only at the highest concentrations”.

On to `Cc1nc(C(F)(F)F)c(C(=O)Nc2c(Br)cc(OC(F)(F)F)cc2Br)s1` [Thifluzamide], for which, in the data set on HepG2 cells [2] (h = 10 µM), the “Statistical significance, Viability Galactose settings Resazurin” value is “* (*p < 0.05 (Tables 3, 4))”. The “Effect on maximal respiration” value in the data set with RPTEC/TERT1 cells [5] (RPTEC/TERT1, higher concentrations) is given as “tendency to increase maximal respiration”. For the same compound, the “Effect on MMP” value in the data set on HepG2 cells [9] is given as “decreased MMP, but only at the highest concentrations”.
